Data published in patent US10344019B2 (priority 2010, dated 2019).
Read-outs that look alike come from different tables or passages of the source.

Key:
Experiment in all cases: microbe, parasite or virus in culture
Type in all cases: cell-based
[1] = test system: HCV 1a RLuc cells (dicistronic genotype 1a H77 replicon, RLuc reporter); settings: Hepatitis C virus, read-out: 1a
Outline: (§1)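 Replicons used: genotype 1b Con1, 1a H77, 2a JFH-1, and a 2a JFH-1 chimera with J6-strain NS5A (M31 present), all dicistronic.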

[2] = test system: HCV 2a JFH-1 Rluc cells (dicistronic genotype 2a JFH-1 replicon, RLuc reporter); settings: Hepatitis C virus, genotype 2a JFH-1 replicon, read-out: 2a JFH
Outline: as §1

[3] = test system: HCV 4a Rluc cells (NS5A chimeric genotype 1b Con1 replicon with genotype 4a NS5A gene); settings: Hepatitis C virus, read-out: 4a
Outline: (§2)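 Replicon cells stably carrying the listed RLuc-encoding dicistronic replicons were seeded and treated with DMSO serial dilutions of compound (10 mM stocks) diluted into culture medium. After 72 h, cells were lysed and Renilla luciferase activity measured. EC50 was derived by non-linear regression.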

[4] = test system: HCV 1b RLuc cells (dicistronic genotype 1b Con1 replicon, RLuc reporter); settings: Hepatitis C virus, read-out: 1b (nM)
Outline: as §1

[5] = test system: HCV 3a RLuc cells (NS5A chimeric genotype 1b Con1 replicon with consensus genotype 3a NS5A gene); settings: Hepatitis C virus
Outline: as §2

[6] = 72 h, Table 2, genotype 1a H77 replicon, 72 hours
[7] = read-out: 3a, Table 2, genotype 3a NS5A chimeric replicon
[8] = read-out: 3a, genotype 3a replicon
[9] = genotype 1a H77 replicon, RLuc reporter
[10] = read-out: 3a, genotype 3a NS5A chimeric 1b Con1 replicon

Compound | EC50 [1, 6] [nM] | EC50 ([2]; 72 h, Table 2, 72 hours) [nM] | EC50 [3] [nM] | EC50 ([4]; 72 h) [nM] | EC50 [5, 7] [nM] | EC50 ([1]; genotype 1a replicon) [nM] | EC50 [2] [nM] | EC50 [4] [nM] | EC50 [5, 8] [nM] | EC50 [1, 9] [nM] | EC50 ([2]; RLuc reporter) [nM] | EC50 [5, 10] [nM]
COC(=O)N[C@H](C(=O)N1CC2(C[C@H]1c1ncc(-c3ccc(-c4ccc5cc(-c6cnc([C@@H]7CCCN7C(=O)[C@H](NC(=O)OC)c7ccccc7)[nH]6)ccc5c4)cc3)[nH]1)OCCO2)C1CCOCC1 [Example 50] | 0.001 to 0.999 | 0.001 to 0.999 | 0.001 to 0.99 | 0.031 | 0.001 to 0.99 |  |  |  |  |  |  | 
COC(=O)N[C@@H](C(=O)N1[C@@H]2CC[C@@H](C2)[C@H]1c1ncc(-c2ccc(-c3ccc4c(ccc5nc([C@@H]6C[C@H]7C[C@H]7N6C(=O)[C@H](NC(=O)OC)c6ccccc6)[nH]c54)c3)cc2)[nH]1)c1ccccc1 [Example 334] |  |  | 0.001 to 0.99 |  |  | 0.001 to 0.999 | 0.001 to 0.999 | 0.009 | 0.001 to 0.99 |  |  | 
COC(=O)NC(C(=O)N1CC2(CC2)C[C@H]1c1ncc(-c2ccc3c(c2)C(F)(F)c2cc(-c4ccc(-c5cnc([C@@H]6CCCN6C(=O)[C@@H](NC(=O)OC)C6CCOCC6)[nH]5)cc4)ccc2-3)[nH]1)C(C)C (stereo partly drawn) [Example 207] |  |  | 0.001 to 0.99 |  |  |  |  | 0.017 |  | 0.001 to 0.999 | 1 to 44 | > 5
COC(=O)N[C@H](C(=O)N1CCC[C@H]1c1nc2ccc(-c3ccc4c(c3)C(F)(F)c3cc(-c5c[nH]c([C@@H]6CCCN6C(=O)[C@H](NC(=O)OC)c6ccccc6)n5)ccc3-4)cc2[nH]1)C1CCOCC1 [Example 218] |  |  | 0.001 to 0.99 |  |  |  |  | 0.01 |  | 0.001 to 0.999 | 0.001 to 0.999 | 0.001 to 0.99
COC(=O)N[C@H](C(=O)N1CCC[C@H]1c1ncc(-c2ccc3cc(-c4ccc(-c5cnc([C@@H]6CC(F)(F)CN6C(=O)[C@H](NC(=O)OC)c6ccccc6)[nH]5)cc4)ccc3c2)[nH]1)C1CCOCC1 [Example 225] |  |  | 0.001 to 0.99 |  |  |  |  | 0.009 |  | 0.001 to 0.999 | 0.001 to 0.999 | 0.001 to 0.99
COC(=O)N[C@@H](C(=O)N1CCC[C@H]1c1ncc(-c2ccc3cc(-c4ccc5c(c4)CCc4nc([C@@H]6CCCN6C(=O)[C@@H](NC(=O)OC(C)(C)C)C6CCOCC6)[nH]c4-5)ccc3c2)[nH]1)c1ccccc1 [Example 269] |  |  | 0.001 to 0.99 |  |  |  |  | 0.076 |  | > 44 | 1 to 44 | > 5
COC(=O)N[C@H](C(=O)N1CCC[C@H]1c1ncc(-c2ccc3cc(-c4ccc(-c5cnc([C@@H]6CCCN6C(=O)[C@@H](NC(=O)OC)C6CCSCC6)[nH]5)cc4)ccc3c2)[nH]1)C(C)C [Example 278] |  |  | 0.001 to 0.99 |  |  |  |  | 0.013 |  | 0.001 to 0.999 | 0.001 to 0.999 | 1 to 4.99
COC(=O)N[C@H](C(=O)N1CCC[C@H]1c1ncc(-c2cccc(-c3ccc4cc(-c5cnc([C@@H]6CCCN6C(=O)[C@@H](NC(=O)OC)C(C)C)[nH]5)ccc4c3)c2)[nH]1)C(C)C [Example 243] |  |  | 0.001 to 0.99 |  |  |  |  | 4.59 |  | > 44 | > 44 | > 5
COC(=O)N[C@H](C(=O)N1CCC[C@H]1c1ncc(-c2ccc(-c3ccc4c(ccc5nc([C@@H]6CC7(CN6C(=O)[C@@H](NC(=O)OC)[C@@H](C)OC)OCCO7)[nH]c54)c3)cc2)[nH]1)C(C)C [Example 90] | 0.001 to 0.999 | 0.001 to 0.999 | 0.001 to 0.99 | 0.044 | 1 to 4.99 |  |  |  |  |  |  | 
COC(=O)N[C@H](C(=O)N1CCC[C@H]1c1ncc(-c2ccc3c(c2F)COc2c-3ccc(-c3cnc([C@@H]4CCCN4C(=O)[C@@H](NC(=O)OC)C(C)C)[nH]3)c2F)[nH]1)C(C)C [Example 330] |  |  | 0.001 to 0.99 |  |  | 0.001 to 0.999 | 0.001 to 0.999 | 0.006 | 0.001 to 0.99 |  |  | 
COC(=O)N[C@H](C(=O)N1CCS[C@H]1c1nc2ccc3cc(-c4ccc(-c5cnc([C@@H]6CCCN6C(=O)[C@@H](NC(=O)OC)C6CCOCC6)[nH]5)cc4)ccc3c2[nH]1)C(C)C [Example 316] |  |  | 0.001 to 0.99 |  |  | 0.001 to 0.999 | 0.001 to 0.999 | 0.242 | 0.001 to 0.99 |  |  | 
COC(=O)N[C@H](C(=O)N1CCC[C@H]1c1ncc(-c2ccc(-c3ccc4c(ccc5nc([C@@H]6CC7(CN6C(=O)[C@@H](NC(=O)OC)C6CCOCC6)OCCO7)[nH]c54)c3)cc2)[nH]1)C(C)C [Example 91] | 0.001 to 0.999 | 0.001 to 0.999 | 0.001 to 0.99 | 0.1 | 1 to 4.99 |  |  |  |  |  |  | 
